Molecular target: T1, human TRPC6 (Homo sapiens, UniProt Q9Y210)
T1 construct: expressed in transfected cells
T1 sequence (Q9Y210 1-931): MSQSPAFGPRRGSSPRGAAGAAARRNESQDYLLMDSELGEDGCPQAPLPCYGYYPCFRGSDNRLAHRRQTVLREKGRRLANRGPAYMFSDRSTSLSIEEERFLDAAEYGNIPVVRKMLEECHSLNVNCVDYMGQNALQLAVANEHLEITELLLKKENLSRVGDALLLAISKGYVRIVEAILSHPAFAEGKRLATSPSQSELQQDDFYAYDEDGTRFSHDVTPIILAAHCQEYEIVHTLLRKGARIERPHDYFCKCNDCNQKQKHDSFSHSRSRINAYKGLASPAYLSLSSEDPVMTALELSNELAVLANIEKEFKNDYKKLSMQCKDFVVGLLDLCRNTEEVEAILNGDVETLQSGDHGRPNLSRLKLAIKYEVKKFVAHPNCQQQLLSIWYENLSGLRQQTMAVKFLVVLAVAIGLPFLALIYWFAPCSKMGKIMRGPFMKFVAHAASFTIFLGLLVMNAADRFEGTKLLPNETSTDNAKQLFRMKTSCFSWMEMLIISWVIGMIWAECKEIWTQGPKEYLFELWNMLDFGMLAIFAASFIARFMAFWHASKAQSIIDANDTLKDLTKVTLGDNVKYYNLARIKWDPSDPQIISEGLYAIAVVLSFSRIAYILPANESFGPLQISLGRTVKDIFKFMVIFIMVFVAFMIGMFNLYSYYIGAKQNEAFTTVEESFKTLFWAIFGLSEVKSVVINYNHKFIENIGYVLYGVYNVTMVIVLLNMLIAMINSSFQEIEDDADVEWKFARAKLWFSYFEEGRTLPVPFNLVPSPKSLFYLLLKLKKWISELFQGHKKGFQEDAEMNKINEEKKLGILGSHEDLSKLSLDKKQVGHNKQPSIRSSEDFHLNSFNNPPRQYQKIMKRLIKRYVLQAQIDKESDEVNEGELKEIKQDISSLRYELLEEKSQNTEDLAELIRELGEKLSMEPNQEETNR
Experiment: TRPC6 calcium flux assay (FLIPR, OAG-stimulated calcium influx)
Format: cell-based
Conditions: HEK293 cells stably transfected with human TRPC6, read-out: hTRPC6 Potency
In short: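 HEK293 cells stably expressing human TRPC6, loaded with calcium dye 90–120 min at RT, then given compound for 25 min before OAG (50 uM final, 0.5% DMSO) in HEPES buffer pH 7.2 with 2 mM CaCl2. Background-subtracted FLIPR peak over 180 s normalized to OAG vs buffer; IC50 from dose plot.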

IC50 | Compound
2310 nM | N[C@@H]1CN(c2nc3cc(F)c(F)cc3n2CC(=O)N2CCn3ncnc3C2)CC[C@H]1F [Example 646, 2-(2-((3R,4R)-3-amino-4-fluoropiperidin-1-yl)-5,6-difluoro-1H-benzo[d]imidazol-1-yl)-1-(5,6-dihydro-[1,2,4]triazolo[1,5-a]pyrazin-7(8H)-yl)ethanone]
3350 nM | CC1(O)CCN(C(=O)Cn2c(N3CC[C@@H](F)[C@H](N)C3)nc3cc(F)c(F)cc32)C1 (stereo partly drawn) [Example 648, 2-(2-((3R,4R)-3-amino-4-fluoropiperidin-1-yl)-5,6-difluoro-1H-benzo[d]imidazol-1-yl)-1-(3-hydroxy-3-methylpyrrolidin-1-yl)ethanone]
> 3750 nM | CS(=O)(=O)N1CCN(C(=O)Cn2c(N3CC[C@@H](F)[C@H](N)C3)nc3cc(F)c(F)cc32)CC1 [Example 649, 2-(2-((3R,4R)-3-amino-4-fluoropiperidin-1-yl)-5,6-difluoro-1H-benzo[d]imidazol-1-yl)-1-(4-(methylsulfonyl)piperazin-1-yl)ethanone]
> 3750 nM | CN(C(=O)Cn1c(N2CC[C@@H](F)[C@H](N)C2)nc2cc(F)c(F)cc21)C1CCS(=O)(=O)CC1 [Example 651, 2-(2-((3R,4R)-3-amino-4-fluoropiperidin-1-yl)-5,6-difluoro-1H-benzo[d]imidazol-1-yl)-N-(1,1-dioxidotetrahydro-2H-thiopyran-4-yl)-N-methylacetamide]
> 3750 nM | CC(C)(C#N)C1CCN(C(=O)Cn2c(N3CC[C@@H](F)[C@H](N)C3)nc3cc(F)c(F)cc32)CC1 [Example 653, 2-(1-(2-(2-((3R,4R)-3-amino-4-fluoropiperidin-1-yl)-5,6-difluoro-1H-benzo[d]imidazol-1-yl)acetyl)piperidin-4-yl)-2-methylpropanenitrile]
> 3750 nM | CNC(=O)C1CCCN(C(=O)Cn2c(N3CC[C@@H](F)[C@H](N)C3)nc3cc(F)c(F)cc32)C1 (stereo partly drawn) [Example 654, 1-(2-(2-((3R,4R)-3-amino-4-fluoropiperidin-1-yl)-5,6-difluoro-1H-benzo[d]imidazol-1-yl)acetyl)-N-methylpiperidine-3-carboxamide]
> 3750 nM | N[C@@H]1CN(c2nc3cc(F)c(F)cc3n2CC(=O)N(CCO)Cc2cccnc2)CC[C@H]1F [Example 655, 2-(2-((3R,4R)-3-amino-4-fluoropiperidin-1-yl)-5,6-difluoro-1H-benzo[d]imidazol-1-yl)-N-(2-hydroxyethyl)-N-(pyridin-3-ylmethyl)acetamide]
> 3750 nM | N#CCCN(C(=O)Cn1c(N2CC[C@@H](F)[C@H](N)C2)nc2cc(F)c(F)cc21)C1CCOCC1 [Example 656]
> 3750 nM | CN(C)C(=O)C1CCCN(C(=O)Cn2c(N3CC[C@@H](F)[C@H](N)C3)nc3cc(F)c(F)cc32)C1 (stereo partly drawn) [Example 657, 1-(2-(2-((3R,4R)-3-amino-4-fluoropiperidin-1-yl)-5,6-difluoro-1H-benzo[d]imidazol-1-yl)acetyl)-N,N-dimethylpiperidine-3-carboxamide]
> 3750 nM | COCC1(C#N)CCN(C(=O)Cn2c(N3CC[C@@H](F)[C@H](N)C3)nc3cc(F)c(F)cc32)CC1 [Example 658, 1-(2-(2-((3R,4R)-3-amino-4-fluoropiperidin-1-yl)-5,6-difluoro-1H-benzo[d]imidazol-1-yl)acetyl)-4-(methoxymethyl)piperidine-4-carbonitrile]
> 3750 nM | N[C@@H]1CN(c2nc3cc(F)c(F)cc3n2CC(=O)N2CCN3C(=O)OCC3C2)CC[C@H]1F (stereo partly drawn) [Example 659, 7-(2-(2-((3R,4R)-3-amino-4-fluoropiperidin-1-yl)-5,6-difluoro-1H-benzo[d]imidazol-1-yl)acetyl)tetrahydro-1H-oxazolo[3,4-a]pyrazin-3(5H)-one]
5.04 nM | N[C@@H]1CN(c2nc3ccc(F)cc3n2CC(=O)Nc2nccs2)CC[C@H]1F [Example 660, 2-(2-((3R,4R)-3-amino-4-fluoropiperidin-1-yl)-6-fluoro-1H-benzo[d]imidazol-1-yl)-N-(thiazol-2-yl)acetamide]
279 nM | N[C@@H]1CN(c2nc3ccc(F)cc3n2CC(=O)NCC(F)(F)F)CC[C@H]1F [Example 661, 2-(2-((3R,4R)-3-amino-4-fluoropiperidin-1-yl)-6-fluoro-1H-benzo[d]imidazol-1-yl)-N-(2,2,2-trifluoroethyl)acetamide]
283 nM | N[C@@H]1CN(c2nc3ccc(F)cc3n2CC(=O)N(CC(F)(F)F)C2CC2)CC[C@H]1F [Example 662, 2-(2-((3R,4R)-3-amino-4-fluoropiperidin-1-yl)-6-fluoro-1H-benzo[d]imidazol-1-yl)-N-cyclopropyl-N-(2,2,2-trifluoroethyl)acetamide]
294 nM | COCCN(C)C(=O)Cn1c(N2CC[C@@H](F)[C@H](N)C2)nc2ccc(F)cc21 [Example 663, 2-(2-((3R,4R)-3-amino-4-fluoropiperidin-1-yl)-6-fluoro-1H-benzo[d]imidazol-1-yl)-N-(2-methoxyethyl)-N-methylacetamide]
555 nM | CN(C(=O)Cn1c(N2CC[C@@H](F)[C@H](N)C2)nc2ccc(F)cc21)[C@H]1CCOC1 [Example 664, 2-(2-((3R,4R)-3-amino-4-fluoropiperidin-1-yl)-6-fluoro-1H-benzo[d]imidazol-1-yl)-N-methyl-N-((S)-tetrahydrofuran-3-yl)acetamide]
584 nM | CN(C(=O)Cn1c(N2CC[C@@H](F)[C@H](N)C2)nc2ccc(F)cc21)[C@@H]1CCOC1 [Example 665, 2-(2-((3R,4R)-3-amino-4-fluoropiperidin-1-yl)-6-fluoro-1H-benzo[d]imidazol-1-yl)-N-methyl-N-((R)-tetrahydrofuran-3-yl)acetamide]
687 nM | C[C@H](NC(=O)Cn1c(N2CC[C@@H](F)[C@H](N)C2)nc2ccc(F)cc21)c1ccccn1 [Example 666, 2-(2-((3R,4R)-3-amino-4-fluoropiperidin-1-yl)-6-fluoro-1H-benzo[d]imidazol-1-yl)-N-((S)-1-(pyridin-2-yl)ethyl)acetamide]
745 nM | N[C@@H]1CN(c2nc3ccc(F)cc3n2CC(=O)N(CC(F)(F)F)[C@H]2CCOC2)CC[C@H]1F [Example 667, 2-(2-((3R,4R)-3-amino-4-fluoropiperidin-1-yl)-6-fluoro-1H-benzo[d]imidazol-1-yl)-N-((S)-tetrahydrofuran-3-yl)-N-(2,2,2-trifluoroethyl)acetamide]
778 nM | N[C@@H]1CN(c2nc3ccc(F)cc3n2CC(=O)NC2CCC2)CC[C@H]1F [Example 668, 2-(2-((3R,4R)-3-amino-4-fluoropiperidin-1-yl)-6-fluoro-1H-benzo[d]imidazol-1-yl)-N-cyclobutylacetamide]
901 nM | C[C@@H](CC#N)NC(=O)Cn1c(N2CC[C@@H](F)[C@H](N)C2)nc2ccc(F)cc21 [Example 669, 2-(2-((3R,4R)-3-amino-4-fluoropiperidin-1-yl)-6-fluoro-1H-benzo[d]imidazol-1-yl)-N-((S)-1-cyanopropan-2-yl)acetamide]
1120 nM | C[C@H](CC#N)NC(=O)Cn1c(N2CC[C@@H](F)[C@H](N)C2)nc2ccc(F)cc21 [Example 670, 2-(2-((3R,4R)-3-amino-4-fluoropiperidin-1-yl)-6-fluoro-1H-benzo[d]imidazol-1-yl)-N-((R)-1-cyanopropan-2-yl)acetamide]
1430 nM | CCN(CCOC)C(=O)Cn1c(N2CC[C@@H](F)[C@H](N)C2)nc2ccc(F)cc21 [Example 671, 2-(2-((3R,4R)-3-amino-4-fluoropiperidin-1-yl)-6-fluoro-1H-benzo[d]imidazol-1-yl)-N-ethyl-N-(2-methoxyethyl)acetamide]
1660 nM | N[C@@H]1CN(c2nc3ccc(F)cc3n2CC(=O)N(CC(F)(F)F)[C@@H]2CCOC2)CC[C@H]1F [Example 672]
> 3750 nM | N[C@@H]1CN(c2nc3ccc(F)cc3n2CC(=O)NCCC(F)(F)F)CC[C@H]1F [Example 673, 2-(2-((3R,4R)-3-amino-4-fluoropiperidin-1-yl)-6-fluoro-1H-benzo[d]imidazol-1-yl)-N-(3,3,3-trifluoropropyl)acetamide]
> 1750 nM | C[C@@H](NC(=O)Cn1c(N2CC[C@@H](F)[C@H](N)C2)nc2ccc(F)cc21)c1ccccn1 [Example 674, 2-(2-((3R,4R)-3-amino-4-fluoropiperidin-1-yl)-6-fluoro-1H-benzo[d]imidazol-1-yl)-N-((R)-1-(pyridin-2-yl)ethyl)acetamide]
> 3750 nM | N[C@@H]1CN(c2nc3ccc(F)cc3n2CC(=O)N[C@H]2CCOC2)CC[C@H]1F [Example 675, 2-(2-((3R,4R)-3-amino-4-fluoropiperidin-1-yl)-6-fluoro-1H-benzo[d]imidazol-1-yl)-N-((S)-tetrahydrofuran-3-yl)acetamide]

Source: US11332459B2 (TEIJIN PHARMA LIMITED, priority 2017, dated 2022)
